From US20250367166A1, “NEXT GENERATION DIPROVOCIMS THAT ACTIVATE THE INNATE AND ADAPTIVE IMMUNE RESPONSE” (The Scripps Research Institute, priority 2022, published 2025)

Experiments:
TLR1/TLR2 [1] = target: TLR1/TLR2 (Homo sapiens, UniProt O60603+Q15399); assay: TNF-α release from PMA-differentiated human THP-1 cells (ELISA); conditions: for Emax: THP-1, 4 h, read-out: Efficacy (magnitude) of response versus diprovocim-1 (100%), THP-1; for EC50: read-out: EC50 (nM) (THP-1): EC50 TNF-α release from human THP-1 cells, Table 5;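 for all read-outs here: cells exposed to graded compound concentrations for 4 h, TNF-α quantified in supernatant, LPS as positive and DMSO as negative control, values are duplicate means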
Chain of TLR1/TLR2 (Homo sapiens, UniProt O60603+Q15399) (Q15399 25-786): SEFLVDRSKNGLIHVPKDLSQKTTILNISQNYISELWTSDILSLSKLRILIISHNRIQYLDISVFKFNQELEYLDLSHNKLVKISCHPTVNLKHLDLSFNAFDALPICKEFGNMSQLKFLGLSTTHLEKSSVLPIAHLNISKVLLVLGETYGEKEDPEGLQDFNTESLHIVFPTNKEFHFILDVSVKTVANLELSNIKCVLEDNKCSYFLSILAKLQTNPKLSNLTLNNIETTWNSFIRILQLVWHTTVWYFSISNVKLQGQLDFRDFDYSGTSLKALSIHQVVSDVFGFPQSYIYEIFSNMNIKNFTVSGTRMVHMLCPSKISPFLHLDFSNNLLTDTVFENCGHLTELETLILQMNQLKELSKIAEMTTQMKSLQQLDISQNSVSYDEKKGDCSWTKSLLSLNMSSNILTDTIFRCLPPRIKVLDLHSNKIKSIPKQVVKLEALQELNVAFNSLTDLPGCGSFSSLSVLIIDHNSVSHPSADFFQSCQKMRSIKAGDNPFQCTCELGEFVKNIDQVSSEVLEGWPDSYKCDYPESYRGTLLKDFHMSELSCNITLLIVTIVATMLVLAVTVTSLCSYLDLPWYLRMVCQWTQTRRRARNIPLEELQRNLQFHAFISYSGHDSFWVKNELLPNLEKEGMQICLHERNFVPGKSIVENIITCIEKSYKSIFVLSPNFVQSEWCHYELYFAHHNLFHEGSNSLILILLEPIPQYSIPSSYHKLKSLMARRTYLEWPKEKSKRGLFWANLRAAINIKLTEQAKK
Chain of TLR1/TLR2 (Homo sapiens, UniProt O60603+Q15399) (O60603 21-784): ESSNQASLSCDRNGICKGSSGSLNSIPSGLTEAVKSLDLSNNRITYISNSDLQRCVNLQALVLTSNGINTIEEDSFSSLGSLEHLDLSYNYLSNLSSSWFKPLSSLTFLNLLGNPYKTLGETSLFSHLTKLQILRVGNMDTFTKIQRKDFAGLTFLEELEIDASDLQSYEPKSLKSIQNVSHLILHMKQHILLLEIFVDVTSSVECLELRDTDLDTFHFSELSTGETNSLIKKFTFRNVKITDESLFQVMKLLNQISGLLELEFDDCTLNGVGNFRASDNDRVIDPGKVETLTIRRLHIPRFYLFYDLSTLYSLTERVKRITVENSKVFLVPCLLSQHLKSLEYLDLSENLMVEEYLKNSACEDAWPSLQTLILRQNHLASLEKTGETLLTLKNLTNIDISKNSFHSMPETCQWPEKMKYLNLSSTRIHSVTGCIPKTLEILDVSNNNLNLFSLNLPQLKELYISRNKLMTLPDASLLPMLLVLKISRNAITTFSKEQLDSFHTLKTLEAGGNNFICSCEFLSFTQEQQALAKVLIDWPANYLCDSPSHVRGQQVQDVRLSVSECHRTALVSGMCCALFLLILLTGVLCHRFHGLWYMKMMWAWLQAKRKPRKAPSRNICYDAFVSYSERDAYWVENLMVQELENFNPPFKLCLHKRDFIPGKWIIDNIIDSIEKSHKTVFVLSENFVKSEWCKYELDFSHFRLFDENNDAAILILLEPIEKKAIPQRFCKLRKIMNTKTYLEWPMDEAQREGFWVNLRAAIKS
Procedure: THP-1 (American Type Culture Collection) cells, a human monocytic leukemia cell line, were differentiated by treatment with 100 nM PMA (Sigma) in Roswell Park Memorial Institute (RPMI) cell culture medium [RPMI containing 10% vol/vol FBS (Gemini Bio Products), 1% penicillin and streptomycin (Life Technologies)] for 24 h. After that, the cells were washed with PBS and cultured in fresh RPMI cell culture medium for 24 h before use in studies. PMA-differentiated THP-1 cells were seeded onto 96-well plates at 0.5×10^5 cells per well and treated with systematically varied concentrations of the candidate compounds (dissolved in DMSO, and the final assay DMSO concentration (0.1%) was kept constant in all experiments) for 4 h. Ultra-pure LPS (dissolved in H2O, Enzo Life Sciences) was assessed alongside the compounds as a positive control and DMSO treated control was used as a negative control. Human TNF-α in the supernatants was measured by ELISA (eBioscience). This assay was used for establishing dose-response curves and measured EC50's. EC50's were calculated by Graphpad Prism. All data is the mean of duplicates and SD is within +10% of mean.

TLR1/TLR2 [2] = target: TLR1/TLR2 (Mus musculus, UniProt Q9EPQ1+Q9QUN7); assay: TNF-α release from thioglycolate-elicited mouse peritoneal macrophages (ELISA); conditions: for Emax: 4 h, read-out: Efficacy (magnitude) of response versus diprovocim-1 (100%), mouse macrophages; for EC50: read-out: EC50 (nM) (mouse): EC50 TNF-α release from mouse macrophages, Table 5
Chain of TLR1/TLR2 (Mus musculus, UniProt Q9EPQ1+Q9QUN7) (Q9EPQ1 26-795): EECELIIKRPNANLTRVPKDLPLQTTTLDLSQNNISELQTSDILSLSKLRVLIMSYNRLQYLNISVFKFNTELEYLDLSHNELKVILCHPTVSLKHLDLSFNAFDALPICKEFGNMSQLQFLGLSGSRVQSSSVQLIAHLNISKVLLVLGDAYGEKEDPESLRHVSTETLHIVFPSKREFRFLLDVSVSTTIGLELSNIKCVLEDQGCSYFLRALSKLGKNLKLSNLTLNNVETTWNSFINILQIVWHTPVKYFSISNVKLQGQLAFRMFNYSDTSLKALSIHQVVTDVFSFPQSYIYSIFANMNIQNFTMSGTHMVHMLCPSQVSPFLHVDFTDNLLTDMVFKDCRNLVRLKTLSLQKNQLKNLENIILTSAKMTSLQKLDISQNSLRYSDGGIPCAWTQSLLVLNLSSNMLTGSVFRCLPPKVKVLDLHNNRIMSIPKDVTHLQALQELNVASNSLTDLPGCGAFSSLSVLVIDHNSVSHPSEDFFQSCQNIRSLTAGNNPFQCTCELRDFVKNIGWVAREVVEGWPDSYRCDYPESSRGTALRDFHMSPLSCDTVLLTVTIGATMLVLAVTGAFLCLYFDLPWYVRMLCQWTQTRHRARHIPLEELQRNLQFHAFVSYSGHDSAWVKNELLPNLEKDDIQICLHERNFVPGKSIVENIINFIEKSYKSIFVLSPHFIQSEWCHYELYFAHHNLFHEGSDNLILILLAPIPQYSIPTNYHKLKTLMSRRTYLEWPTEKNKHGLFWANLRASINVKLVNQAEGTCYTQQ
Chain of TLR1/TLR2 (Mus musculus, UniProt Q9EPQ1+Q9QUN7) (Q9QUN7 25-784): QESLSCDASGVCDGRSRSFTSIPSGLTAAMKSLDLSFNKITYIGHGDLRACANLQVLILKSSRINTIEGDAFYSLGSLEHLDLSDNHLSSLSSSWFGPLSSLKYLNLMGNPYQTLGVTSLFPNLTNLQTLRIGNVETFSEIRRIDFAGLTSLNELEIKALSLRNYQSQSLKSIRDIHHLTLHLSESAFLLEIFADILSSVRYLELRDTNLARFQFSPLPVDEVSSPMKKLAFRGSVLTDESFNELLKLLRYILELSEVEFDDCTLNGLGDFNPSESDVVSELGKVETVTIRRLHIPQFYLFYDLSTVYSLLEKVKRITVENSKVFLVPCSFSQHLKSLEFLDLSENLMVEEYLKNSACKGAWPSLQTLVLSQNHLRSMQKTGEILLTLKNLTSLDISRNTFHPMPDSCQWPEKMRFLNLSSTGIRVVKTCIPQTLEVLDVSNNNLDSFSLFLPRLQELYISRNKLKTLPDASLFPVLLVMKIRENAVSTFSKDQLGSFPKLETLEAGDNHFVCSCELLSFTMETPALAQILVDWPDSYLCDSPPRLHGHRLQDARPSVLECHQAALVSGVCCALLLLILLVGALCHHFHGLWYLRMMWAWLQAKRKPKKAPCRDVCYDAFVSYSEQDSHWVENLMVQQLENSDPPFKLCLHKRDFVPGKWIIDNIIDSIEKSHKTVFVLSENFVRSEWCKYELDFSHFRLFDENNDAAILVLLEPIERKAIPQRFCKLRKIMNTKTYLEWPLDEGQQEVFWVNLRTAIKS

Structure (SMILES) | Emax (TLR1/TLR2 [1]) [%] | EC50 (TLR1/TLR2 [1]) [nM] | Emax (TLR1/TLR2 [2]) [%] | EC50 (TLR1/TLR2 [2]) [nM]
C[C@H](NC(=O)OC(C)(C)C)C(=O)OCCCCCCCCCCCCNC(=O)[C@@H]1CN(C(=O)c2ccc(C(=O)N3C[C@@H](C(=O)N[C@H]4C[C@@H]4c4ccccc4)[C@H](C(=O)N[C@H]4C[C@@H]4c4ccccc4)C3)cc2)C[C@H]1C(=O)N[C@H]1C[C@@H]1c1ccccc1 [Compound 57, (S)-12-((3S,4S)-1-(4-((3S,4S)-3,4-Bis(((1S,2R)-2-phenylcyclopropyl)carbamoyl)pyrrolidine-1-carbonyl)-benzoyl)-4-(((1S,2R)-2-phenylcyclopropyl)carbamoyl)-pyrrolidine-3-carboxamido)-dodecyl 2-((tert-butoxycarbonyl)amino)propanoate] | 80 | 0.25 | 200 | 0.67
C[C@@H](NC(=O)OC(C)(C)C)C(=O)OCCCCCCCCCCCCNC(=O)[C@@H]1CN(C(=O)c2ccc(C(=O)N3C[C@@H](C(=O)N[C@H]4C[C@@H]4c4ccccc4)[C@H](C(=O)N[C@H]4C[C@@H]4c4ccccc4)C3)cc2)C[C@H]1C(=O)N[C@H]1C[C@@H]1c1ccccc1 [Compound 58, 12-((3S,4S)-1-(4-((3S,4S)-3,4-Bis(((1S,2R)-2-phenyl-cyclopropyl)carbamoyl)pyrrolidine-1-carbonyl)-benzoyl)-4-(((1S,2R)-2-phenylcyclopropyl)carbamoyl)-pyrrolidine-3-carboxamido)-dodecyl (tert-butoxycarbonyl)-D-alaninate] | 110 | 1.7 | 200 | 5
CC(C)[C@H](NC(=O)OC(C)(C)C)C(=O)OCCCCCCCCCCCCNC(=O)[C@@H]1CN(C(=O)c2ccc(C(=O)N3C[C@@H](C(=O)N[C@H]4C[C@@H]4c4ccccc4)[C@H](C(=O)N[C@H]4C[C@@H]4c4ccccc4)C3)cc2)C[C@H]1C(=O)N[C@H]1C[C@@H]1c1ccccc1 [Compound 59, (S)-12-((3S,4S)-1-(4-((3S,4S)-3,4-Bis(((1S,2R)-2-phenylcyclopropyl)carbamoyl)pyrrolidine-1-carbonyl)-benzoyl)-4-(((1S,2R)-2-phenylcyclopropyl)carbamoyl)-pyrrolidine-3-carboxamido)-dodecyl 2-((tert-butoxycarbonyl)amino)-3-methylbutanoate] | 100 | 1.8 | 180 | 19
CC(C)(C)OC(=O)N1CCC[C@H]1C(=O)OCCCCCCCCCCCCNC(=O)[C@@H]1CN(C(=O)c2ccc(C(=O)N3C[C@@H](C(=O)N[C@H]4C[C@@H]4c4ccccc4)[C@H](C(=O)N[C@H]4C[C@@H]4c4ccccc4)C3)cc2)C[C@H]1C(=O)N[C@H]1C[C@@H]1c1ccccc1 [Compound 60, (S)-2-(12-((3S,4S)-1-(4-((3S,4S)-3,4-Bis(((1S,2R)-2-phenylcyclopropyl)carbamoyl)pyrrolidine-1-carbonyl)-benzoyl)-4-(((1S,2R)-2-phenylcyclopropyl)carbamoyl)-pyrrolidine-3-carboxamido)-dodecyl) 1-tert-butyl pyrrolidine-1,2-dicarboxylate] | 90 | 0.94 | 100 | 9.2
CC[C@H](C)[C@H](NC(=O)OC(C)(C)C)C(=O)OCCCCCCCCCCCCNC(=O)[C@@H]1CN(C(=O)c2ccc(C(=O)N3C[C@@H](C(=O)N[C@H]4C[C@@H]4c4ccccc4)[C@H](C(=O)N[C@H]4C[C@@H]4c4ccccc4)C3)cc2)C[C@H]1C(=O)N[C@H]1C[C@@H]1c1ccccc1 [Compound 61, (2S,3S)-12-((3S,4S)-1-(4-((3S,4S)-3,4-Bis(((1S,2R)-2-phenylcyclopropyl)carbamoyl)pyrrolidine-1-carbonyl)-benzoyl)-4-(((1S,2R)-2-phenylcyclopropyl)carbamoyl)-pyrrolidine-3-carboxamido)-dodecyl 2-((tert-butoxy-carbonyl)amino)-3-methylpentanoate] | 100 | 9 | 140 | 50
